# Results from ChEMBL document CHEMBL1152362, “Asperelines A-F, peptaibols from the marine-derived fungus Trichoderma asperellum” (J Nat Prod, 2009).
# Non-standard residues stand in square brackets, D forms with d. Residues, ends and D or L forms follow the SMILES beside them. *: point of attachment. Prolinol = OC[C@@H]1CCCN1*; Aib = CC(C)(N)C(=O)O
# Columns and labels:
# Alternaria solani = assay: Antimicrobial activity against Alternaria solani; type: functional, organism-based
# Pyricularia oryzae = assay: Antimicrobial activity against Pyricularia oryzae; type: functional, organism-based
# Staphylococcus aureus = assay: Antimicrobial activity against Staphylococcus aureus; type: functional
# Escherichia coli = assay: Antimicrobial activity against Escherichia coli; type: functional
smiles,measurement,setting,value
CC[C@@H](C)[C@H](NC(=O)C(C)(C)NC(=O)[C@@H](NC(=O)C(C)(C)NC(=O)C(C)(C)NC(C)=O)C(C)C)C(=O)NC(C)(C)C(=O)NC(C)(C)C(=O)N[C@@H](C)C(=O)NC(C)(C)C(=O)N1CCC[C@H]1CO [ASPERELINE A],IC50,Alternaria solani,> 100 µg/mL
same,IC50,Pyricularia oryzae,> 100 µg/mL
same,IC90,Staphylococcus aureus,> 500 µg/mL
same,IC90,Escherichia coli,> 500 µg/mL
CC[C@@H](C)[C@H](NC(=O)C(C)(C)NC(=O)[C@@H](NC(=O)C(C)(C)NC(=O)[C@H](C)NC(C)=O)C(C)C)C(=O)NC(C)(C)C(=O)NC(C)(C)C(=O)N[C@@H](C)C(=O)NC(C)(C)C(=O)N1CCC[C@H]1CO [ASPERELINE B],IC50,Alternaria solani,> 100 µg/mL
same,IC50,Pyricularia oryzae,> 100 µg/mL
same,IC90,Staphylococcus aureus,> 500 µg/mL
same,IC90,Escherichia coli,> 500 µg/mL
CC[C@@H](C)[C@H](NC(=O)C(C)(C)NC(=O)[C@@H](NC(=O)C(C)(C)NC(=O)C(C)(C)NC(C)=O)C(C)C)C(=O)NC(C)(C)C(=O)N[C@@H](C)C(=O)N[C@@H](C)C(=O)NC(C)(C)C(=O)N1CCC[C@H]1CO [ASPERELINE C],IC50,Alternaria solani,> 100 µg/mL
same,IC50,Pyricularia oryzae,> 100 µg/mL
same,IC90,Staphylococcus aureus,> 500 µg/mL
same,IC90,Escherichia coli,> 500 µg/mL
CC(=O)NC(C)(C)C(=O)NC(C)(C)C(=O)N[C@H](C(=O)NC(C)(C)C(=O)N[C@H](C(=O)NC(C)(C)C(=O)NC(C)(C)C(=O)N[C@@H](C)C(=O)NC(C)(C)C(=O)N1CCC[C@H]1CO)C(C)C)C(C)C [ASPERELINE D] (Ac-[Aib][Aib]V[Aib]V[Aib][Aib]A[Aib]-Prolinol),IC50,Alternaria solani,> 100 µg/mL
same,IC50,Pyricularia oryzae,> 100 µg/mL
same,IC90,Staphylococcus aureus,> 500 µg/mL
same,IC90,Escherichia coli,> 500 µg/mL
CC[C@@H](C)[C@H](NC(=O)C(C)(C)NC(=O)[C@@H](NC(=O)C(C)(C)NC(=O)C(C)(C)NC(C)=O)C(C)C)C(=O)NC(C)(C)C(=O)NC(C)(C)C(=O)N[C@@H](CO)C(=O)NC(C)(C)C(=O)N1CCC[C@H]1CO [ASPERELINE E],IC50,Alternaria solani,> 100 µg/mL
same,IC50,Pyricularia oryzae,> 100 µg/mL
same,IC90,Staphylococcus aureus,> 500 µg/mL
same,IC90,Escherichia coli,> 500 µg/mL
CC[C@@H](C)[C@H](NC(=O)C(C)(C)NC(=O)[C@@H](NC(=O)[C@@H](NC(=O)C(C)(C)NC(C)=O)C(C)C)C(C)C)C(=O)NC(C)(C)C(=O)NC(C)(C)C(=O)N[C@@H](C)C(=O)NC(C)(C)C(=O)N1CCC[C@H]1CO [ASPERELINE F],IC50,Alternaria solani,> 100 µg/mL
same,IC50,Pyricularia oryzae,> 100 µg/mL
same,IC90,Staphylococcus aureus,> 500 µg/mL
same,IC90,Escherichia coli,> 500 µg/mL
